Measurements from patent US20260285888A1, “HETEROCYCLIC COMPOUND AND USE THEREOF” (OTSUKA PHARMACEUTICAL CO., LTD., priority 2023, published 2026).

Experiment: Study for confirmation of conversion to brexpiprazole in a buffer (stability of the evaluation compounds)
Format: physicochemical
Conditions: for Concentration of brexpiprazole formed / Concentration of evaluation compound decreased: in buffer, average of duplicate; for Concentration of brexpiprazole formed: 60-minute reaction sample; for Concentration of evaluation compound decreased: decrease in 60-minute vs 0-minute reaction sample
Experimental: The conversion from the evaluation compounds to brexpiprazole in a buffer (i.e., the stability of the evaluation compounds) was evaluated.
The Example 1 compound was dissolved in acetonitrile/water (1:1, v/v) to 10 mmol/L and further diluted with acetonitrile/water (1:1, v/v) to 100 μmol/L for use.
The other Example compounds and the Reference Example 5 compound to Reference Example 7 compound were each dissolved in DMSO to 10 mmol/L and further diluted with acetonitrile to 100 μmol/L for use, except for the following compounds.
The compounds of Examples 52, 95, 96, 117, and 130 (EX 52, EX 95, EX 96, EX 117, and EX 130) were dissolved in acetonitrile/water (8:2, v/v) to 10 mmol/L and further diluted with acetonitrile to 100 μmol/L for use.
The compound of Example 97 (EX 97) was dissolved in acetonitrile/water (8:2, v/v) to 10 mmol/L and further diluted with acetonitrile/water (8:2, v/v) to 100 μmol/L for use.
The compounds of Examples 15 and 116 (EX 15 and EX 116) were dissolved in DMSO to 1 mmol/L and further diluted with acetonitrile to 100 μmol/L for use.
The reaction was conducted by preparing each reaction solution such that the final concentration of each component was as follows. The test was conducted in duplicate.
For the compounds of Examples 1 to 8, 10 to 19, 26 to 27, 37, 50, 87 to 89, 91, 116, 121, 123, 150, and 151 (EX 1 to EX 8, EX 10 to EX 19, EX 26 to EX 27, EX 37, EX 50, EX 87 to EX 89, EX 91, EX 116, EX 121, EX 123, EX 150, and EX 151), and the compounds of Reference Examples 5 to 7 (REX 5 to REX 7), the reaction solution without the evaluation compound (198 μl) was pre-incubated at 37° C. for 3 minutes, and then each of the evaluation compound solutions (2 μl) was added and stirred; thereafter, the reaction was started at 37° C. At 0 minutes or 60 minutes after the start of the reaction, the reaction was stopped by adding and stirring a reaction stop solution (1000 μl) composed of acetonitrile/isopropanol (4:1, v/v) containing internal standard substances. However, the 0-minute reaction sample (198 μl) was prepared by adding the evaluation compound (2 μl) after adding the reaction stop solution (1000 μl). The samples after stopping the reaction were used as the measurement samples. Calibration curve samples with the same composition were prepared (final concentrations of the evaluation compounds and brexpiprazole: 0.01, 0.1, and 1 μmol/L, with the proviso that for the evaluation compounds only, the 0-minute reaction samples were also used as calibration curve samples for 1 μmol/L).
For the compounds of Examples 24 to 25, 28 to 29, 32 to 36, 40 to 49, 51 to 60, 62 to 64, 66 to 77, 80 to 86, 90, 92 to 111, 113, 115, 117 to 120, 122, 124 to 130, 132 to 147, and 152 to 160 (EX 24 to EX 25, EX 28 to EX 29, EX 32 to EX 36, EX 40 to EX 49, EX 51 to EX 60, EX 62 to EX 64, EX 66 to EX 77, EX 80 to EX 86, EX 90, EX 92 to EX 111, EX 113, EX 115, EX 117 to EX 120, EX 122, EX 124 to EX 130, EX 132 to EX 147, and EX 152 to EX 160), the reaction solution without the evaluation compound (148.5 μl) was pre-incubated at 37° C. for 3 minutes, and then each of the evaluation compound solutions (1.5 μl) was added and stirred; thereafter, the reaction was started at 37° C. At 0 minutes or 60 minutes after the start of the reaction, the reaction was stopped by adding and stirring a reaction stop solution (600 μl) composed of acetonitrile/isopropanol (4:1, v/v) containing internal standard substances. However, the 0-minute reaction sample (148.5 μl) was prepared by adding the evaluation compound (1.5 μl) after adding the reaction stop solution (600 μl). The samples after stopping the reaction were used as the measurement samples. Calibration curve samples with the same composition were prepared (final concentrations of the evaluation compounds and brexpiprazole: 0.01, 0.1, and 1 μmol/L, with the proviso that for the evaluation compounds only, the 0-minute reaction samples were also used as calibration curve samples for 1 μmol/L). […]

SMILES | Concentration of brexpiprazole formed [nM] | Concentration of evaluation compound decreased [nM] | stability in the buffer / conversion to brexpiprazole (in words) (Tris-hydrochloric acid buffer pH 7.5, 37° C., 60 minutes, 1 μmol/L)
CCOC(=O)CCCC(=O)OCOP(=O)([O-])OC[N+]1(CCCCOc2ccc3ccc(=O)[nH]c3c2)CCN(c2cccc3sccc23)CC1 [EX 68, (4-(benzo[b]thiophen-4-yl)-1-(4-((2-oxo-1,2-dihydroquinolin-7-yl)oxy)butylpiperazin-1-ium-1-yl)methyl (((5-ethoxy-5-oxopentanoyl)oxy)methyl) phosphate] | 0 | 90 | –
O=c1ccc2ccc(OCCCC[N+]3(COP(=O)([O-])OC[C@H]4CC[C@H](CO)CC4)CCN(c4cccc5sccc45)CC3)cc2[nH]1 [EX 86, (4-(benzo[b]thiophen-4-yl)-1-(4-((2-oxo-1,2-dihydroquinolin-7-yl)oxy)butyl)piperazin-1-ium-1-yl)methyl (((1r,4r)-4-(hydroxymethyl)cyclohexyl)methyl) phosphate] | 0 | 50 | –
CCCCCC(=O)OC[N+]1(CCCCOc2ccc3ccc(=O)[nH]c3c2)CCN(c2cccc3sccc23)CC1.[I-] [REX 6, 4-(Benzo[b]thiophen-4-yl)-1-((hexanoyloxy)methyl)-1-(4-((2-oxo-1,2-dihydroquinolin-7-yl)oxy)butyl)piperazin-1-ium iodide, reference compound] | 210 | 220 | –
O=C(OCOP(=O)([O-])OC[N+]1(CCCCOc2ccc3ccc(=O)[nH]c3c2)CCN(c2cccc3sccc23)CC1)C12CC3CC(CC(C3)C1)C2 [EX 124, (((1s,3s)-adamantane-1-carbonyl)oxy)methyl ((4-(benzo[b]thiophen-4-yl)-1-(4-((2-oxo-1,2-dihydroquinolin-7-yl)oxy)butyl)piperazin-1-ium-1-yl)methyl) phosphate] | 0 | 100 | –
O=C(OCCCCCCOP(=O)([O-])OC[N+]1(CCCCOc2ccc3ccc(=O)[nH]c3c2)CCN(c2cccc3sccc23)CC1)c1ccc([N+](=O)[O-])cc1 [EX 85, (4-(benzo[b]thiophen-4-yl)-1-(4-((2-oxo-1,2-dihydroquinolin-7-yl)oxy)butyl)piperazin-1-ium-1-yl)methyl (6-((4-nitrobenzoyl)oxy)hexyl) phosphate] | 0 | 40 | –
COP(=O)([O-])OC[N+]1(CCCCOc2ccc3ccc(=O)[nH]c3c2)CCN(c2cccc3sccc23)CC1 [EX 87, (4-(benzo[b]thiophen-4-yl)-1-(4-((2-oxo-1,2-dihydroquinolin-7-yl)oxy)butyl)piperazin-1-ium-1-yl)methyl methyl phosphate] | 0 | 0 | –
CCC(=O)OC[N+]1(CCCCOc2ccc3ccc(=O)[nH]c3c2)CCN(c2cccc3sccc23)CC1.[I-] [REX 5, 4-(Benzo[b]thiophen-4-yl)-1-(4-((2-oxo-1,2-dihydroquinolin-7-yl)oxy)butyl)-1-((propionyloxy)methyl)piperazin-1-ium iodide, reference compound] | 260 | 200 | –
CC(C)(C)OC(=O)CCCC(=O)OCOP(=O)([O-])OC[N+]1(CCCCOc2ccc3ccc(=O)[nH]c3c2)CCN(c2cccc3sccc23)CC1 [EX 69, (4-(benzo[b]thiophen-4-yl)-1-(4-((2-oxo-1,2-dihydroquinolin-7-yl)oxy)butyl)piperazin-1-ium-1-yl)methyl (((5-(tert-butoxy)-5-oxopentanoyl)oxy)methyl) phosphate] | 0 | -10 | –
CC(C)(C)C(=O)OCOP(=O)([O-])OC[N+]1(CCCCOc2ccc3ccc(=O)[nH]c3c2)CCN(c2cccc3sccc23)CC1 [EX 25, (4-(benzo[b]thiophen-4-yl)-1-(4-((2-oxo-1,2-dihydroquinolin-7-yl)oxy)butyl)piperazin-1-ium-1-yl)methyl ((pivaloyloxy)methyl) phosphate] | 0 | -10 | –
CCCC(=O)OCOP(=O)([O-])OC[N+]1(CCCCOc2ccc3ccc(=O)[nH]c3c2)CCN(c2cccc3sccc23)CC1 [EX 121] | 0 | 90 | –
CCCOP(=O)([O-])OC[N+]1(CCCCOc2ccc3ccc(=O)[nH]c3c2)CCN(c2cccc3sccc23)CC1 [EX 88, (4-(benzo[b]thiophen-4-yl)-1-(4-((2-oxo-1,2-dihydroquinolin-7-yl)oxy)butyl)piperazin-1-ium-1-yl)methyl propyl phosphate] | 0 | -10 | –
CC1(C)OCC(COC(=O)CCCCC(=O)OCOP(=O)([O-])OC[N+]2(CCCCOc3ccc4ccc(=O)[nH]c4c3)CCN(c3cccc4sccc34)CC2)CO1 [EX 75, (4-(benzo[b]thiophen-4-yl)-1-(4-((2-oxo-1,2-dihydroquinolin-7-yl)oxy)butyl)piperazin-1-ium-1-yl)methyl (((6-((2,2-dimethyl-1.3-dioxan-5-yl)methoxy)-6-oxohexanoyl)oxy)methyl) phosphate] | 0 | 70 | –
CCCCCCOC(=O)OC[N+]1(CCCCOc2ccc3ccc(=O)[nH]c3c2)CCN(c2cccc3sccc23)CC1 [Reference Example 7, reference compound] | – | – | clearly degraded to brexpiprazole
CCCCCCCCOP(=O)([O-])OC[N+]1(CCCCOc2ccc3ccc(=O)[nH]c3c2)CCN(c2cccc3sccc23)CC1 [EX 37, (4-(benzo[b]thiophen-4-yl)-1-(4-((2-oxo-1,2-dihydroquinolin-7-yl)oxy)butyl)piperazin-1-ium-1-yl)methyl octyl phosphate] | 0 | 60 | –
